Assay [1] deals with SLC2A3. Description: Compound uptake in HEK293 expressing solute carrier family 2 member 3. The assay is classed as cell-based. As to the method: (§1) HEK293 cells are cultured and seeded at ~60% confluency in 24-well plates and are transiently transfected with 250 ng of a candidate transporter and 1 μL transfection reagent (JetPRIME). After 2 days, cells are washed and novel fluorescent probes at different concentrations are added to the transport medium and incubated at 37° C., for at least 30 minutes. To terminate the transport, cells are washed with PBS and fixed with 4% paraformaldehyde. The colocalization of probe uptake and cells expressing the transporters is investigated by immunostaining the transporter which has a fused FLAG tag, using anti-FLAG 488. Before confocal imaging, nuclei are labeled with Hoechst 33342 and cells are mounted and imaged on a Leica SP8 confocal microscope.
For in vitro experiments, HEK293 cells were cultured and seeded in 24-well plates, reaching approximately 60% confluency. For transient transfection, 250 ng of a candidate transporter plasmid and 1 μL of transfection reagent (JetPRIME) were added to the cells. After a 2-day incubation period, the cells were washed, and novel fluorescent probes were introduced into the transport medium at various concentrations. The cells were then incubated at 37° C., for a minimum of 30 minutes to allow for uptake. To stop the transport process, the cells were washed with PBS and fixed using 4% paraformaldehyde. […]

Assay [2] addresses T1, SLCO1A2 (Homo sapiens, UniProt P46721).
T1 sequence (P46721 1-670): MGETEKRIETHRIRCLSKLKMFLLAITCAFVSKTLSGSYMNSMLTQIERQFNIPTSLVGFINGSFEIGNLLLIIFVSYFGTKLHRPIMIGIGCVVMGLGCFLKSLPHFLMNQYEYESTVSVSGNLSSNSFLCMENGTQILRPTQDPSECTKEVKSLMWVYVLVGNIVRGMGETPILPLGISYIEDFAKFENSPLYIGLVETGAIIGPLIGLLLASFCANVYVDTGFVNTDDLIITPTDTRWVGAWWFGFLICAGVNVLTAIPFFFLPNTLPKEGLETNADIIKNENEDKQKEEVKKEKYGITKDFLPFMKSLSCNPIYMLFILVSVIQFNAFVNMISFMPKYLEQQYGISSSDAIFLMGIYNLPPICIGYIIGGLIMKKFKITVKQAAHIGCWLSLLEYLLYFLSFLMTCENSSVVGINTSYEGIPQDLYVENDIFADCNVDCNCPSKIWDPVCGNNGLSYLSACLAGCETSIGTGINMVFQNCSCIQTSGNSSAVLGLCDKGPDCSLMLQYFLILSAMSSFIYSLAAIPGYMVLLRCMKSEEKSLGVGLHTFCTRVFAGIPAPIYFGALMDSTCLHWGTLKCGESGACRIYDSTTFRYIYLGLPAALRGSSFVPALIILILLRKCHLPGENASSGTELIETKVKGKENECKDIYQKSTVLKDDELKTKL
Description: Compound uptake in HEK293 cells transfected with SLCO1A2. Type of assay: cell-based. Further details: FLAG. The procedure: as §1
(§2) For in vitro experiments, HEK293 cells were cultured and seeded in 24-well plates, reaching approximately 60% confluency. For transient transfection, 250 ng of a candidate transporter plasmid and 1 μL of transfection reagent (JetPRIME) were added to the cells. After a 2-day incubation period, the cells were washed, and novel fluorescent probes were introduced into the transport medium at various concentrations. The cells were then incubated at 37° C., for a minimum of 30 minutes to allow for uptake. To stop the transport process, the cells were washed with PBS and fixed using 4% paraformaldehyde. Immunostaining of the transporter, which was fused with a FLAG tag, was performed using an anti-FLAG 488 antibody. Before confocal imaging, the cell nuclei were labeled with Hoechst 33342. Finally, the cells were mounted and imaged using a Leica SP8 confocal microscope.

The target of assay [3] is T2, Slco1a4 (Mus musculus, UniProt Q9EP96).
T2 sequence (Q9EP96 1-670): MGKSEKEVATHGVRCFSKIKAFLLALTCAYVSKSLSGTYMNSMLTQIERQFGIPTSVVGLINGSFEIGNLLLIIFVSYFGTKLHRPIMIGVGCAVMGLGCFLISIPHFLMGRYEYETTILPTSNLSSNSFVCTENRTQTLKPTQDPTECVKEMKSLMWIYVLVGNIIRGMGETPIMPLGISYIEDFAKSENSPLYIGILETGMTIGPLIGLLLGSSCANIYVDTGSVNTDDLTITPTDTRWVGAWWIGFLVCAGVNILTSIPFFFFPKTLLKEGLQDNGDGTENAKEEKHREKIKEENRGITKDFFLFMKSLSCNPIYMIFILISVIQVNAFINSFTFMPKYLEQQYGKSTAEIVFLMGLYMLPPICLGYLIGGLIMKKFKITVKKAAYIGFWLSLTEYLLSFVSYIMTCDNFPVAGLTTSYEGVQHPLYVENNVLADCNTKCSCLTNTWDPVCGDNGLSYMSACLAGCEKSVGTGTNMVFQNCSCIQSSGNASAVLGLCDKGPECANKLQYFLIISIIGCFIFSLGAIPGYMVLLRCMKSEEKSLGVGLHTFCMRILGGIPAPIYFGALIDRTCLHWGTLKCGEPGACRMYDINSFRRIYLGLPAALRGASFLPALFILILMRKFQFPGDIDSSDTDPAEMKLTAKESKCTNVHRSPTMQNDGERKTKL
Description: Compound uptake in HEK293 cells transfected with Slco1a4. Further details: FLAG; expressed in transfected cells. The assay is classed as cell-based. The procedure:
as §1, §2

Assay [4] concerns brain cell types. Description: In vivo two-photon imaging of mouse cortex after topical cortical administration of fluorophores. The conditions noted are these: topical cortical administration 50 μM, Tie2-GFP endothelial reporter mice.

This is an account of results in patent US20260272895A1, “METHODS AND KITS FOR DELIVERY OF COMPOUNDS INTO CELLS” (Yale University, priority 2023, published 2026).

For `O=S(=O)([O-])c1cc(S(=O)(=O)O)ccc1C1=c2cc3c4c(c2Oc2cc(Br)ccc21)CCC[N+]=4CCC3` [Compound 1, 2-(12-bromo-1,2,3,5,6,7-hexahydrochromeno[2,3-f]pyrido[3,2,1-ij]quinolin-4-ium-9-yl)-5-sulfobenzenesulfonate], the “uptake on expression of SLC2A3” value in assay [1] is given as “does not induce uptake”. In assay [2] (concentration not given), the “uptake in SLCO1A2 transfected HEK293 cells” value is given as “only those cells expressing the carrier SLCO1A2 (as evidenced by anti-FLAG labeling-green) take up compound 1”. Also, the “uptake in Slco1a4 transfected HEK293 cells” value in assay [3] (concentration not given) is reported as “only those cells expressing SLCO1A4 (as evidenced by anti-FLAG labeling-green) take up compound 1”.
Take `COc1cc2c(c(OC)c1OC)-c1ccc(OC)c(=O)cc1C(NS(=O)(=O)c1ccc(-c3c4ccc(N(C)C)cc4[o+]c4cc(N(C)C)ccc34)c(S(=O)(=O)[O-])c1)CC2` (stereo not drawn) [Compound 47, 2-(3,6-bis(dimethylamino)xanthylium-9-yl)-5-(N-(1,2,3,10-tetramethoxy-9-oxo-5,6,7,9-tetrahydrobenzo[a]heptalen-7-yl)sulfamoyl)benzenesulfonate]: the “uptake in SLCO1A2 transfected HEK293 cells” value in assay [2] (10 μM) was “robust and selective uptake”. In assay [4], the “colocalization with GFP labeling” value was “precise colocalization between Colchicine-eEDiTS and GFP labeling”. Also, the “uptake in Slco1a4 transfected HEK293 cells” value in assay [3] (10 μM) is “robust and selective uptake”.
